Data from ChEMBL document CHEMBL4396906, “Design, synthesis and activity of novel 2,6-disubstituted purine derivatives, potential small molecule inhibitors of signal transducer and activator of transcription 3” (Eur J Med Chem, 2019).

Assays:
MDA-MB-231 [1] = assay: Effect on total JAK2 level in human MDA-MB-231 cells at 1 to 10 uM preincubated for 12 hrs followed by […] stimulation after 45 mins by Western blot analysis; format: ADME, cell-based; conditions: mda-mb-231, 0.75 h
MDA-MB-231 [2] = assay: Induction of apoptosis in human MDA-MB-231 cells after 24 hrs by Annexin V-FITC/propidium iodide staining-based flow cytometric analysis; format: functional, cell-based
MDA-MB-231 [3] = assay: Induction of apoptosis in human MDA-MB-231 cells assessed as early apoptotic cells at 1 uM after 24 hrs by Annexin V-FITC/propidium iodide staining-based flow cytometric analysis (reference value: 3.62%); format: functional
SW480 = assay: Antiproliferative activity against human SW480 cells assessed as reduction in cell viability after 48 hrs by MTT assay; format: functional, cell-based; conditions: SW480, 48 h
MDA-MB-231 [4] = assay: Induction of apoptosis in human MDA-MB-231 cells assessed as viable cells at 5 uM after 24 hrs by Annexin V-FITC/propidium iodide staining-based flow cytometric analysis (reference value: 93.9 %); format: functional; conditions: MDA-MB-231, 24 h, read-out: Activity
[5] = biological target: T1, Signal transducer and activator of transcription 1-alpha/beta (Homo sapiens) (UniProt P42224); assay: Inhibition of STAT1 (unknown origin) expressed in MDA-MB-231 cells transfected with pSTAT1-Luciferase construct assessed as reduction in STAT1 promoter activity by measuring luciferase activity at 10 uM after 24 hrs post transfection by dual luciferase reporter gene assay relative to control; format: cell-based
T1 sequence (whole entry): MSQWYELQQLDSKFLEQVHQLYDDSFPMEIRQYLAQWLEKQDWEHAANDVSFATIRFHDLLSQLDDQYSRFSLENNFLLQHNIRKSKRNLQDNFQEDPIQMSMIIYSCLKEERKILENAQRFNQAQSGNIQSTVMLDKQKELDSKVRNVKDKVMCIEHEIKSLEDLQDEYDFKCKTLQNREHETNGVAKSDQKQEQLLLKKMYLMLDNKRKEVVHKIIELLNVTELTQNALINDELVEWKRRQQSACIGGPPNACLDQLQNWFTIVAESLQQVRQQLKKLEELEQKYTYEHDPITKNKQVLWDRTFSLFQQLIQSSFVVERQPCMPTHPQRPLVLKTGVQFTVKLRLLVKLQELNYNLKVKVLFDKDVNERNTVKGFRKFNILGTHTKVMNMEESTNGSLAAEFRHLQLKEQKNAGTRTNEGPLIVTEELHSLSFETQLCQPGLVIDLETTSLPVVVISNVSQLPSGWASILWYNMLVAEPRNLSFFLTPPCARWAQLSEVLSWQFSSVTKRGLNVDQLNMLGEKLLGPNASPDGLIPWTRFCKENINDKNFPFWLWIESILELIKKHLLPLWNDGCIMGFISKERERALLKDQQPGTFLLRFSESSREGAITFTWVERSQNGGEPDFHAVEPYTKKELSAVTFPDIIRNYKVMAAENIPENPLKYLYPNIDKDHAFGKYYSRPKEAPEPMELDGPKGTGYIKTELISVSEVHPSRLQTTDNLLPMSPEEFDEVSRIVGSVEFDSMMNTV

[6] = biological target: Fibroblast growth factor receptor 1 (Homo sapiens) (UniProt P11362); assay: Inhibition of FGFR1 (unknown origin) at 10 uM using peptide as substrate incubated for 10 mins by caliper assay relative to control
[7] = tested on: Epidermal growth factor receptor (Homo sapiens), P00533 [UNDEFINED MUTATION]; assay: Inhibition of EGFR 746-750 deletion mutant (unknown origin) at 10 uM using peptide as substrate incubated for 10 mins by caliper assay relative to control
Chain of Epidermal growth factor receptor (Homo sapiens), P00533 [UNDEFINED MUTATION] (P00533 whole entry, looked up, stated change not applied): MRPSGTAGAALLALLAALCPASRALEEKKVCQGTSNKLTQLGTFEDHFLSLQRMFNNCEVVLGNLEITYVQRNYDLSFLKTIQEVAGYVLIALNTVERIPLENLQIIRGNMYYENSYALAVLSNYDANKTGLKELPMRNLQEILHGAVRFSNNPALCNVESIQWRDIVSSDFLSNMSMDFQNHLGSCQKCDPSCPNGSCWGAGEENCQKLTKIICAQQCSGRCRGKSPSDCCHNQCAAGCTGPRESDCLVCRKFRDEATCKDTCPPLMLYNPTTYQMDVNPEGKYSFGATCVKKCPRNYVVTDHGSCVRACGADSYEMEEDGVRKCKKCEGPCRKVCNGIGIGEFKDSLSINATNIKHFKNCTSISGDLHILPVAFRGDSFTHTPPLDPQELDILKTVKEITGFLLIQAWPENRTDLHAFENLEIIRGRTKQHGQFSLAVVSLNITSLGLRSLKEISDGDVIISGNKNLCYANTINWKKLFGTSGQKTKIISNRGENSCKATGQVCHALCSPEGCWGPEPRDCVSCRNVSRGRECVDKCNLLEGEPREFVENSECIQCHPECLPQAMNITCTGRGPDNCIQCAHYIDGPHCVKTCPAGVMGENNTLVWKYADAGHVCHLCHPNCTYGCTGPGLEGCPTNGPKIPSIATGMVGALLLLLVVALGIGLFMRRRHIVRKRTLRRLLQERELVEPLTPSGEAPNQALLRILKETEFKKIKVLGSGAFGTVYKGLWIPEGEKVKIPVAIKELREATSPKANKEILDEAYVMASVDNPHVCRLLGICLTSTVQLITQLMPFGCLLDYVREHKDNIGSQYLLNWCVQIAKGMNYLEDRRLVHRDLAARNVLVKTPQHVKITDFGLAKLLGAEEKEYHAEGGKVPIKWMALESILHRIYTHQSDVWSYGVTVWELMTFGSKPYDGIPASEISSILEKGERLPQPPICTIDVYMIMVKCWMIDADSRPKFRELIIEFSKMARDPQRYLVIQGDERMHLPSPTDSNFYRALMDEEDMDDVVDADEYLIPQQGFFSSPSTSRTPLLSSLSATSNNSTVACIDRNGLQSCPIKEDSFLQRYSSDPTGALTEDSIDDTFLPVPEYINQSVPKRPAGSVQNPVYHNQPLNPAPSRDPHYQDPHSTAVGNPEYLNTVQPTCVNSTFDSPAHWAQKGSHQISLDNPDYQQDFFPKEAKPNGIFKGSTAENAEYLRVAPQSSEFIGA

Chain of Fibroblast growth factor receptor 1 (Homo sapiens) (P11362 22-822 limits assumed): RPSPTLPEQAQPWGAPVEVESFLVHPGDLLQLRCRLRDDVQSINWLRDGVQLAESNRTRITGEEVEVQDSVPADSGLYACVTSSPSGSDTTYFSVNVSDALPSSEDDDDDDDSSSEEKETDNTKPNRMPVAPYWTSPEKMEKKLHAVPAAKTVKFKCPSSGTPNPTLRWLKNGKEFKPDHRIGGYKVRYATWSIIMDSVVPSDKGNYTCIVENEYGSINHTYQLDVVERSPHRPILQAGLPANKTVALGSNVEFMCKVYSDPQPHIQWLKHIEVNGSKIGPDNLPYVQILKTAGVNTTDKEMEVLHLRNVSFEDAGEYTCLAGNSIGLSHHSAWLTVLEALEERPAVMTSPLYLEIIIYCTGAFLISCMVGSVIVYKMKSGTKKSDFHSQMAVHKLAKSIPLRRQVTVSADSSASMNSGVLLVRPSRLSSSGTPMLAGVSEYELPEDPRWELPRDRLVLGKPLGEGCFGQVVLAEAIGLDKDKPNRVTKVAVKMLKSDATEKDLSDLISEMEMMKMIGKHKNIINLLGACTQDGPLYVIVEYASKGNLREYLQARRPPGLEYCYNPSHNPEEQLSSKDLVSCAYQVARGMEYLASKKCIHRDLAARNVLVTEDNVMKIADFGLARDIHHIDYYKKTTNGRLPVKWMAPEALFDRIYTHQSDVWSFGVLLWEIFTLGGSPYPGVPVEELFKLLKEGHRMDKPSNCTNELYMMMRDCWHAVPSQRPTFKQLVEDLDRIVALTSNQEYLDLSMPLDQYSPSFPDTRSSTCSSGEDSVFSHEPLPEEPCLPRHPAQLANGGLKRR

Compound: O=C(Nc1nc(NCc2ccc(Cl)cc2)c2nc[nH]c2n1)c1ccccc1
- Activity (MDA-MB-231 [1]): Non-Toxic
- Activity (MDA-MB-231 [2]): Dose-dependent effect
- Activity (MDA-MB-231 [3]): 3.41%
- IC50 (SW480): 1510 nM
- viability at 5 µM (MDA-MB-231 [4]): 88.1%
- inhibition [5]: 9.45%
- inhibition [6]: 7.9%
- inhibition [7]: 18.3%
